Values after ≈ are worked out from the molar mass of the structure shown.
Tests used:
[1] = acute; oral; unspecified; mortality
Apis mellifera = settings: acute; duration: 48 hours; oral; unspecified; mortality
Canidae = settings: subchronic; oral; Dog Other; histopathology: nonneoplastic
Daphnia magna = settings: chronic/long-term; duration: 21 days; reproduction
Oryctolagus sp. = settings: subchronic; oral; histopathology: nonneoplastic
Tagia sp. = settings: mortality

With `CSc1nnc(C(C)(C)C)c(=O)n1N` [Metribuzin] the LD50 [1] was 322 mg/kg, the LD50 (Apis mellifera) was 166 µg/piece and the LD50 (Bird; acute, oral, unspecified, mortality) was 164 mg/kg. It also gave an NOEC (Bird; reproductive) of 28.3 mg/kg-day, an LC50 (Bird; short-term, oral, feed, mortality) of over 359 mg/kg-day and an NOAEL (Canidae) of 2 mg/kg-day. It also gave an NOEC (Daphnia magna) of 0.32 mg/L, an LC50 (Oncorhynchus mykiss; acute, duration: 96 hours, mortality) of 74.6 µg/mL (≈ 348 µM) and an NOEC (Oncorhynchus mykiss; chronic/long-term, duration: 95 days, growth) of 4.4 mg/L. The NOAEL (Oryctolagus sp.) was 2 mg/kg-day, the NOAEL (Rattus norvegicus; acute, clinical signs) was over 2 mg/kg-day and the NOAEL (Rattus norvegicus; chronic, duration: 2 years) was 1.3 mg/kg-day. It also gave an NOAEL (Rattus norvegicus; reproduction developmental, body weight) of 2.2 mg/kg-day, an NOAEL (Rattus norvegicus; subchronic, oral, histopathology: nonneoplastic) of 2 mg/kg-day and an LC50 (Tagia sp.; acute, duration: 14 days) of 427 mg/kg. For the same compound, the NOEC (Tagia sp.; chronic/long-term, duration: 8 weeks) was 5250 g/ha.

Reference: EPA's ToxValDB 9.5 (doi:10.2903/j.efsa.2006.88r)
